Data reported in patent US9987287B2, “Orally disintegrating solid dosage unit containing an estetrol component” (Donesta Bioscience B.V., priority 2013, dated 2018).
Blank lines part the entries; values can stand above or below the molecule they belong to.

How the values were obtained:
[1] = Randomized, open-label, single dose, two-period, cross-over pharmacokinetic study, sublingual vs oral estetrol; assay type: in vivo, healthy female postmenopausal volunteers; details: 10 mg single dose
Protocol: A randomized, open-label, single dose, two-period, cross-over, pharmacokinetic study is conducted to compare sublingual bioavailability of 10 mg estetrol administered in two 100 mg tablets (each containing 5 mg estetrol and having the same composition as the tablets described in Example 7) with oral availability of estetrol contained in a 83 mg tablet containing 10 mg estetrol. These tablets are administered sublingually and orally to healthy female postmenopausal volunteers under fasting conditions.
Twelve healthy postmenopausal female subjects are selected on the basis of the following criteria: Caucasian race, age of 45-65 years (inclusive), nonsmokers or past smokers (at least 6 months before dosing), body-mass index (BMI)=18.5 to 30 kg/m^2 (inclusive at the time of the screening).
At the start of the first and the second period of the study, between 07:00 am and 07:28 am, 6 subjects receive a single dose of the sublingual formulation of estetrol by administering two estetrol tablets (tablet weight 100 mg; 5 mg estetrol each) and 6 subjects receive a single oral dose of the oral estetrol formulation by administering one estetrol tablet (tablet weight 83 mg; 10 mg estetrol), ingested together with 200 ml water.
Subjects are required to fast for at least 10 hours prior to tablet administration and for at least 4 hours after administration. Drinking of water or beverages is not permitted within 1 hour before the drug administration. Subjects receive 200 ml of water 1 hour prior to and 2 hours after tablet administration. Subjects are free to drink water and fruit tea from 4 hours following the tablet administration. Standardized meals are provided 10.5 hours before and 4, 6, 9, and 13 hours after tablet administration.
The estetrol concentration in the collected blood samples is determined by means of HPLC/MS/MS. The concentrations of glucuronided estetrol (D-ring) in the urine samples is also determined with the help of HPLC/MS/MS.

[2] = humans; cited from earlier work
estrogen receptors = details: in vitro; cited from earlier work
[3] = target: T1, sex hormone binding globulin (SHBG) (Homo sapiens, UniProt P04278); details: cited from earlier work
T1 sequence (P04278 30-402): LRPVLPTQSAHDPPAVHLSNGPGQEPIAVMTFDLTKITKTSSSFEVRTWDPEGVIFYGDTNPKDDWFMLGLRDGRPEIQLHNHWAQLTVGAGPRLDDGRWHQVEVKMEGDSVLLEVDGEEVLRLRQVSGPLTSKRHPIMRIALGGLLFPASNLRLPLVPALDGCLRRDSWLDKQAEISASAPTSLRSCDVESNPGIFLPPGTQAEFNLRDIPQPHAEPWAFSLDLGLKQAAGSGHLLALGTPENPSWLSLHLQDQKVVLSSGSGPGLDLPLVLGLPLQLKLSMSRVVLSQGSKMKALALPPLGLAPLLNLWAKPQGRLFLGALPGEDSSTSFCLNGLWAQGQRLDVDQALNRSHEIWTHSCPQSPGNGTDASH

production of SHBG = details: in vitro; cited from earlier work
[4] = dose-dependent; cited from earlier work
[5] = test system: DMBA mammary tumour model; details: extent and dose level similar to tamoxifen and to ovariectomy; cited from earlier work
[6] = test system: human breast cancer cells; details: in the presence of 17β-estradiol, in vitro; cited from earlier work
[7] = Dissolution into saliva, anhydrous vs monohydrate; assay type: physicochemical; details: compared with estetrol monohydrate

Structure (SMILES): C[C@]12CC[C@@H]3c4ccc(O)cc4CC[C@H]3[C@@H]1[C@@H](O)[C@@H](O)[C@@H]2O [estetrol, 1,3,5 (10)-estratrien-3,15α,16α,17β-tetrol]
Bioavailability of sublingually administered estetrol versus orally administered estetrol ([1]; fasting, sublingual two 100 mg tablets (5 mg each, composition of Example 7) vs oral 83 mg tablet): comparable or even superior to orally administered estetrol
Onset of bioavailability, sublingual versus oral ([1]; fasting, sublingual two 100 mg tablets vs oral 83 mg tablet): earlier bioavailability compared to orally administered estetrol
Impact on a liver function parameter, sublingual ([1]; sublingual tablets vs oral tablet): less impact on a liver function parameter
Oral bioavailability [2]: high and dose-proportional
Terminal elimination half-life [2]: about 28 hours
Binding selectivity to estrogen receptors (estrogen receptors): binds highly selective to the estrogen receptors with preference for the ERα form of the receptor
Binding to SHBG [3]: does not bind
Stimulation of SHBG production (production of SHBG): does not stimulate the production of SHBG
Estrogenic effects in rat models [4]: exhibited estrogenic effects on the vagina, the uterus (both myometrium and endometrium), body weight, bone mass, bone strength, hot flushes and on ovulation (inhibition)
Tumour development in DMBA mammary tumour model [5]: prevented tumour development
Effect in human breast cancer cells [6]: anti-estrogenic effect

Hygroscopicity: highly hygroscopic
Structure (SMILES): C[C@]12CC[C@@H]3c4ccc(O)cc4CC[C@H]3[C@@H]1[C@@H](O)[C@@H](O)[C@@H]2O [Anhydrous estetrol, estetrol]
Rate of dissolution into saliva [7]: dissolves more rapidly into saliva than estetrol monohydrate
